Experimental data reported in US12697330B2, “Therapeutic methods using vadadustat” (Akebia Therapeutics, Inc., priority 2021, dated 2026).

System: hemoglobin (Hb)
Assay: Phase 2 study in hemodialysis subjects converting from epoetin alfa, Main Study: efficacy (hemoglobin)
Format: in vivo, human
Details: for Change in Hb from Primary Evaluation Period to Secondary Evaluation Period, Mean (SD) / Change in Hb from Primary Evaluation Period to Secondary Evaluation Period, Median / Hb at Primary Evaluation Period (Average of Weeks 10 to 12), Mean (SD) / Hb at Primary Evaluation Period (Average of Weeks 10 to 12), Median / Hb at Secondary Evaluation Period (Average of Weeks 18 to 20), Mean (SD) / Hb at Secondary Evaluation Period (Average of Weeks 18 to 20), Median: completed 12 weeks of treatment
Description: The primary objective was to assess the efficacy and safety of daily dosing of vadadustat compared to epoetin alfa for 12 weeks in hemodialysis subjects. Additional objectives included to assess the efficacy and safety of three times weekly (TIW) dosing of vadadustat in selected hemodialysis subjects who have been successfully managed with daily dosing of vadadustat through Week 12, to evaluate the PK/PD of daily and TIW dosing of vadadustat in hemodialysis subjects compared to epoetin alfa, and to assess the efficacy and safety of several dosing strategies of vadadustat compared to epoetin alfa during a 20-week Treatment Period in hemodialysis subjects.
The Main study population consisted of adult subjects receiving chronic, outpatient in-center hemodialysis three times weekly (TIW), with 2 screening hemoglobin (Hb) values between 8.5 and 11.0 g/dL (inclusive) and on maintenance treatment with epoetin alfa <300 U/kg/week.
Efficacy Endpoints. The primary endpoint was the mean change in Hb between Baseline (average pretreatment Hb) and the primary evaluation period (average Hb from Weeks 10 to 12). Secondary endpoints included proportion of subjects with Hb values within the target range (10.0 to 11.0 g/dL, inclusive) at the primary evaluation period (Weeks 10-12) and for subjects who transitioned to TIW vadadustat dosing, mean change in Hb from primary evaluation period (average Hb from Weeks 10-12) to the secondary period (average Hb from Weeks 18-20). Other secondary endpoints included mean change in Hb from Baseline (average pretreatment Hb) and the secondary evaluation period (average Hb from Weeks 18-20), proportion of subjects with Hb values within the target range (10.0 to 11.0 g/dL, inclusive) at the secondary evaluation period (Weeks 18 to 20), for subjects who transitioned to TIW vadadustat dosing, proportion of subjects with Hb values within the target range (10.0 to 11.0 g/dL, inclusive) at the secondary evaluation period (Weeks 18-20), proportion of subjects with a mean increase in Hb from Baseline to the primary evaluation period ≥0.5 g/dL (average Hb from Weeks 10-12) or with Hb values within the target range (10.0 to 11.0 g/dL, inclusive) at the primary evaluation period (Weeks 10-12), proportion of subject with a mean increase in Hb from Baseline to the secondary evaluation period ≥0.5 g/dL (average Hb from Weeks 18-20) or with Hb values within the target range (10.0 to 11.0 g/dL, inclusive) at the secondary evaluation period (Weeks 18-20), intravenous (IV) iron supplementation, ESA rescue, and RBC transfusion.
Study Design. This was a Phase 2, randomized, open-label study to evaluate vadadustat for the treatment of anemia in hemodialysis subjects converting from epoetin alfa therapy. For all subjects (Main study and ESA hyporesponder parallel study), the study included a Screening Period, a study Treatment Period, and a Safety Follow-Up Period as described below. PK and PD sampling were done throughout the study. The aim was to achieve and maintain Hb levels within the target range of 10.0 to 11.0 g/dL, inclusive, while targeting the middle of the range and minimizing excursions outside the target range.
Randomization. Subjects were randomized to either a vadadustat treatment arm or epoetin alfa treatment arm. Randomization was stratified by mean weekly epoetin alfa dose calculated over a period of 8 weeks prior to SV2: low epoetin alfa dose group (≤90 U/kg/week) or high epoetin alfa dose group (>90 to <300 U/kg/week). In the low epoetin alfa dose group, subjects were randomized in a 3:3:2 ratio to receive either an initial vadadustat daily dose of 450 mg (3 tablets) or 300 mg (2 tablets), or epoetin alfa. In the high epoetin alfa dose group, subjects were randomized in a 3:3:3:2 ratio to receive either an initial vadadustat daily dose of 600 mg (4 tablets), 450 mg (3 tablets) or 300 mg (2 tablets), or epoetin alfa.
Study Treatment Period (Baseline/Day 1 to Week 20). […]

[1] = Vadadustat, subjects did not switch
[2] = Vadadustat, subjects switched from QD to TIW
[3] = whole treatment group, Main Study

Which “Mean change from baseline in Hb over time, versus comparator” value (Randomized population, FIG. 13 and FIG. 14) does the source give for `O=C(O)CNC(=O)c1ncc(-c2cccc(Cl)c2)cc1O` [vadadustat, {[5-(3-chlorophenyl)-3-hydroxypyridine-2-carbonyl]amino}acetic acid] here?
Its value is “lower than the epoetin alfa treatment group throughout”.

And the “Change in Hb from Primary Evaluation Period to Secondary Evaluation Period, Mean (SD)” value (shortened to “Change in Hb … (SD)”) (Vadadustat Total, Overall)?
The value was −0.064 (1.2236) g/dL.

What about the “Change in Hb from Primary Evaluation Period to Secondary Evaluation Period, Median” value (shortened to “Change in Hb … Median”) (Vadadustat Total, Overall) of the same compound?
Its value is -0.033 g/dL.

And the “Hb at Primary Evaluation Period (Average of Weeks 10 to 12), Mean (SD)” value (“Hb at Primary Evaluation Period … (SD)” for short) (Vadadustat Total, Overall)?
Its value is 9.809 (1.1548) g/dL.

What about the “Hb at Primary Evaluation Period (Average of Weeks 10 to 12), Median” value (shortened to “Hb at Primary Evaluation Period … Median”) (Vadadustat Total, Overall) of the same compound?
The value was 9.900 g/dL.

What about the “Hb at Secondary Evaluation Period (Average of Weeks 18 to 20), Mean (SD)” value (“Hb at Secondary Evaluation Period … (SD)” below) (Vadadustat Total, Overall) of the same compound?
The value was 9.876 (0.8867) g/dL.

What about the “Hb at Secondary Evaluation Period (Average of Weeks 18 to 20), Median” value (“Hb at Secondary Evaluation Period … Median” below) (Vadadustat Total, Overall) of the same compound?
The value was 9.800 g/dL.

And the “Change in Hb … (SD)” value [1]?
Its value is 0.039 g/dL.

And the “Change in Hb … Median” value [1]?
The value was 0.067 g/dL.

What about the “Hb at Primary Evaluation Period … (SD)” value [1] of the same compound?
The value was 9.694 (1.2248) g/dL.

And the “Hb at Primary Evaluation Period … Median” value [1]?
Its value is 9.483 g/dL.

And the “Hb at Secondary Evaluation Period … (SD)” value [1]?
The value was 9.854 (0.8378) g/dL.

What about the “Hb at Secondary Evaluation Period … Median” value [1] of the same compound?
Its value is 9.800 g/dL.

And the “Change in Hb … (SD)” value (Vadadustat, subjects did not switch, listed as Vadadustat)?
Its value is 0.039 (1.2286) g/dL.

And the “Change in Hb … (SD)” value [2]?
Its value is -0.422 g/dL.

What about the “Change in Hb … Median” value [2] of the same compound?
The value was -0.350 g/dL.

And the “Hb at Primary Evaluation Period … (SD)” value [2]?
Its value is 10.376 (0.3754) g/dL.

What about the “Hb at Primary Evaluation Period … Median” value [2] of the same compound?
Its value is 10.433 g/dL.

And the “Hb at Secondary Evaluation Period … (SD)” value [2]?
The value was 9.955 (1.0716) g/dL.

What about the “Hb at Secondary Evaluation Period … Median” value [2] of the same compound?
Its value is 9.900 g/dL.

And the “Change in Hb … (SD)” value (Vadadustat, subjects switched from QD to TIW, listed as Vadadustat)?
Its value is −0.422 (1.1708) g/dL.

And the “proportion of subjects having Hb values within target range at Weeks 10 to 12” value (vadadustat 300 mg group of the high epoetin alfa stratum)?
The value was 8.3%.

What about the “course of Hb versus baseline” value (vadadustat 300 mg, high epoetin alfa stratum) of the same compound?
Its value is “decrease from baseline in Hb up to Week 10, after which Hb began to return towards baseline”.

And the “mean (SD) Hb at the PEP (Weeks 10 to 12)” value [3]?
Its value is 9.78 (1.048) g/dL.

And the “mean (SD) changes from baseline in Hb at the PEP” value [3]?
The value was −0.35 (0.976) g/dL.

What about the “proportion of subjects having Hb values within target range at the PEP (Weeks 10 to 12)” value [3] of the same compound?
The value was 32.7%.
